This note sets out measurements from ChEMBL document CHEMBL4311969, “Polygala tenuifolia-Acori tatarinowii herbal pair as an inspiration for substituted cinnamic α-asaronol esters: Design, synthesis, anticonvulsant activity, and inhibition of lactate dehydrogenase study” (Eur J Med Chem, 2019).

Structures are written as SMILES.

In data set [1] the target is T1, GABA-A receptor; alpha-1/beta-2/gamma-2 (Homo sapiens, UniProt P14867+P18507+P47870).
T1 sequence (P14867 whole entry): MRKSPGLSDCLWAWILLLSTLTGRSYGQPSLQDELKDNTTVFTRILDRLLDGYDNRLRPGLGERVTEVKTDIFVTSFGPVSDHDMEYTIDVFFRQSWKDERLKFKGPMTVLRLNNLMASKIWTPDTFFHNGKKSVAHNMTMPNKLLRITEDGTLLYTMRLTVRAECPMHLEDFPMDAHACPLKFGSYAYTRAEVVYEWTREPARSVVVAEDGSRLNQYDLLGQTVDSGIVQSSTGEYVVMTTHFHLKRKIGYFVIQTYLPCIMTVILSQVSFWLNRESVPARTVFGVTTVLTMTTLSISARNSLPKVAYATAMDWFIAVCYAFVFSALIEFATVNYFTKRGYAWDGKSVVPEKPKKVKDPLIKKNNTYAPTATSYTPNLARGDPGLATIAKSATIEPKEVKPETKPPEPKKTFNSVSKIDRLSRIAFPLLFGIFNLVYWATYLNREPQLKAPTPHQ
T1 sequence (P47870 whole entry): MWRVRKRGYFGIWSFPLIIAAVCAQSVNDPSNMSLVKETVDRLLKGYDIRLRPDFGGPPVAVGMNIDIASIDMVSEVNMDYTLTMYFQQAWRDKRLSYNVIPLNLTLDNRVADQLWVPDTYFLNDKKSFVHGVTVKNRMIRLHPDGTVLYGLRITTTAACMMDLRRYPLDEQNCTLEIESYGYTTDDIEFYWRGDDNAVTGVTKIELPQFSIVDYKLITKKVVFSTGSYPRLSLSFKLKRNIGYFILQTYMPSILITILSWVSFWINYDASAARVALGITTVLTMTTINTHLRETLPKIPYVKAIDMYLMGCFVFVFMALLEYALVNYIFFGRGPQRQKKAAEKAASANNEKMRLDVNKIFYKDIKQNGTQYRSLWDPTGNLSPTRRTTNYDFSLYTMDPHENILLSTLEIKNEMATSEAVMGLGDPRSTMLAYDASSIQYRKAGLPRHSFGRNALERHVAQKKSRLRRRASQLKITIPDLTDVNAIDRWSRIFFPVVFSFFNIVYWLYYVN
T1 sequence (P18507 whole entry): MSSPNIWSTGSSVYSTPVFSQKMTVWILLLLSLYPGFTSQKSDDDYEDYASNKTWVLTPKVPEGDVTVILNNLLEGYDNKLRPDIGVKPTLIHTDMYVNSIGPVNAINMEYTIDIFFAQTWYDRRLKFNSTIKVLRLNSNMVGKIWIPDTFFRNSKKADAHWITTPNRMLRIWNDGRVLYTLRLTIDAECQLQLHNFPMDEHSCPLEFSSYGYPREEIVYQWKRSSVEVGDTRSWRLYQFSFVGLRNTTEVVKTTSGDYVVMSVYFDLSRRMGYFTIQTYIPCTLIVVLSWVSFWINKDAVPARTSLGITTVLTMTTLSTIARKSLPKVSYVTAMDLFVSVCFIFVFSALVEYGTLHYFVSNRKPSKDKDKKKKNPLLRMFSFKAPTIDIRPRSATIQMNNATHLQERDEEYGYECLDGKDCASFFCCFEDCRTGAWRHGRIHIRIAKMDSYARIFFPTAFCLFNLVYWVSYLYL
As to the kind of experiment: Agonist activity at GABA alpha1beta2gamma2 receptor in human HEK293T at -50 mV holding potential by whole cell voltage clamp assay. The format is protein-complex assay.

Data set [2] is described as follows: Tmax in Sprague-Dawley rat kidney at 50 mg/kg, po. The data set is classed as ADME, organism-based.
Data set [3] is described as follows: Drug uptake in Sprague-Dawley rat heart at 50 mg/kg, po. The data set is classed as ADME, organism-based. The following applies: in vivo.
Data set [4] is described as follows: Noncompetitive inhibition of human LDH5 at 0.5 mM using sodium pyruvate as substrate by UV-VIS spectrophotometry method based Lineweaver-Burk plot analysis.

Broadly, the EC50 is the concentration giving half of the maximal effect. Lower therefore signals an effect from little substance. Broadly, the Tmax is the time at which the peak concentration occurs. Compound `COc1cc(OC)c(OC)cc1/C=C/COC(=O)/C=C/c1c(OC)cc(OC)c(OC)c1OC` yielded a half-maximal effective concentration (EC50) in data set [1] of 46.3 µM. For the same compound, the Tmax in data set [2] is 1 h. In data set [3], the Drug uptake entry is reported as “Active”.

Usually Ki stands for the dissociation constant of the complex between target and ligand, obtained from inhibition or displacement. A high value points to lower affinity. The compound `COc1cc(OC)c(OC)cc1/C=C/COC(=O)/C=C/c1cc(OC)c(OC)c(OC)c1OC` gave an inhibition constant Ki in data set [4] of 4.84 µM.
